Values of other authors in patent US20150196506A1, “CHEWING GUM FORMULATIONS COMPRISING DAPOXETINE AND TADALAFIL” (Sanovell Ilac Sanayi Ve Ticaret Anonim Sirketi, priority 2012, published 2015).

What was measured:
[1] = similarly poorly dissolved in gastric juice
[2] = following oral administration

solubility in water [1]	binding to plasma proteins [2]	Compound
poorly soluble in water		CN1CC(=O)N2[C@H](c3ccc4c(c3)OCO4)c3[nH]c4ccccc4c3C[C@@H]2C1=O [Tadalafil, (6R-trans)-6-(1,3-benzodioxol-5-yl)-2,3,6,7,12,12a-hexahydro-2-methyl-pyrazino [1′,2′:1,6] pyrido[3,4-b]indole-1,4-dione]
	almost completely	CN(C)[C@@H](CCOc1cccc2ccccc12)c1ccccc1 [dapoxetine]
